# Reference: patent US8686224B2, “Plant defense signal peptides” (priority 2005, dated 2014)
# Non-standard residues stand in square brackets, D forms with d. Residues, ends and D or L forms follow the SMILES beside them. Primed or numbered codes have the meaning given here. No end group written: not given here. *: point of attachment. APDP″ = photoaffinity cross-linker coupled to Cys through a disulfide bond, [N-]=[N+]=Nc1ccc(C(=O)NCCCCNC(=O)CCS*)c(O)c1; Tyr(3-I) = N[C@@H](Cc1ccc(O)c(I)c1)C(=O)O
# What was measured:
# [1] = target: T1, AtPep1 receptor (At1g73080, AtPEPR1) (Arabidopsis thaliana, UniProt Q9SSL9); experiment: Binding assay of 125I1-Tyr-AtPep1 with Arabidopsis suspension cultured cells
# T1 sequence (Q9SSL9 29-1123): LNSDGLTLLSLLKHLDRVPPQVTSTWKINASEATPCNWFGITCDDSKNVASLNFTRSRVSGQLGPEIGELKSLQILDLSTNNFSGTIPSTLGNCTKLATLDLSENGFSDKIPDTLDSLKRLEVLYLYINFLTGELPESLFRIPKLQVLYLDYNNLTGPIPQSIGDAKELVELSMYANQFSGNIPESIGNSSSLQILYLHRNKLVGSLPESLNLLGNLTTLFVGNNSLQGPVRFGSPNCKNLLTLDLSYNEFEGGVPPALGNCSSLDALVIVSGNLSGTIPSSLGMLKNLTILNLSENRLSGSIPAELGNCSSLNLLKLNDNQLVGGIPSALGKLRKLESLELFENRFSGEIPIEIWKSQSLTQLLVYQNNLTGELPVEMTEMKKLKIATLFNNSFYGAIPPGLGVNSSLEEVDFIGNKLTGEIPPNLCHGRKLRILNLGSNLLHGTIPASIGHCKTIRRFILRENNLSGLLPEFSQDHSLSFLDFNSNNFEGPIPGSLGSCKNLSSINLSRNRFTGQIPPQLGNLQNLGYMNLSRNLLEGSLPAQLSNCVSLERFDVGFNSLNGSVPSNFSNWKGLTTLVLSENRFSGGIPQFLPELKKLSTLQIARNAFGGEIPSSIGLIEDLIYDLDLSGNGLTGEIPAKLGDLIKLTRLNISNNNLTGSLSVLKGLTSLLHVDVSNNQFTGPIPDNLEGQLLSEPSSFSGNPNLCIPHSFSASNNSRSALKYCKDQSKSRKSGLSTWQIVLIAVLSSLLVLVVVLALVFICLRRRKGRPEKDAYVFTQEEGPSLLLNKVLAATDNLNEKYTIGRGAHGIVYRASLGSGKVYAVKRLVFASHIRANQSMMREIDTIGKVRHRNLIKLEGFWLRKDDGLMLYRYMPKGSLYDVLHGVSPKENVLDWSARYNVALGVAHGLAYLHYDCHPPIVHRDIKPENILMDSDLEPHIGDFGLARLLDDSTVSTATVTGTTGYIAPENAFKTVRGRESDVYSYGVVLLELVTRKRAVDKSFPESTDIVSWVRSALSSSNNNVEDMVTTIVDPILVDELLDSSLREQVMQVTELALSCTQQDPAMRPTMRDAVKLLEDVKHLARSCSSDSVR
# Protocol: Binding assays. […] The filtered cells were washed three times with 5 mL of cold MS medium containing 3% sucrose, suspended in 1 mL MS medium containing 3% sucrose in a glass test tube, and analyzed for total radioactivity in a gamma-ray counter (Isodata 2020; Isodata Inc., Palatine, Ill.).
# [2] = test system: Arabidopsis suspension cultured cells; experiment: Alkalinization assay with Arabidopsis suspension cultured cells; format: cell-based, Arabidopsis thaliana
# Protocol: For the alkalinization assay, cells suspensions are grown in a volume of 40 ml in a 125 ml flask. Tobacco and Arabidopsis cells are typically grown for 3-5 days before use. Tomato cells are typically grown for 4-7 days before use. Soybean cells are generally grown for 3-7 days before use. Preferably, cells are in mid to log or log phase when they are to be used for the alkalinization assay. A 1 ml pipette tip with the end cut off (to prevent clogging of the tip with the cells) is used to aliquot 1 ml of the cells from the suspension into a well in a 24-well culture cluster plate. The flask is swirled between aliquots to ensure that the cells remain evenly dispersed throughout the cell suspension and an roughly equivalent number of cells is provided to each well. The plate(s) are then shaken at 160 rpm for 1 hour. Small aliquots ([…]) of extracted peptide fractions are then added to the wells. After 20 min, the pH of the cell media is measured and recorded.
# Alkalinization Assay. Arabidopsis suspension cells were grown with shaking in the dark in 125 mL flasks, using 40 mL NT media as previously described (Pearce et al. Proc. Natl. Acad. Sci. USA 98:12843-12847, 2001). The cells were transferred weekly (2.5 mL) and used for assays 3-5 days after transfer. One mL aliquots of cells were transferred to wells of 24-well culture plates and allowed to equilibrate for one hour while agitated on a rotary shaker at 160 rpm. Aliquots of 1-10 μL from extracts or fractions eluted from HPLC columns were added to cells and the pH of the media was monitored after 20 min.
# Alkalinization assay. Medium alkalinization activity of Arabidopsis suspension cultured cells by AtPep1 analogs was analyzed as previously described for systemin (Pearce et al., Science 253:895-897, 1991), RALF (Pearce et al. Proc. Natl. Acad. Sci. USA 98:12843-12847, 2001), HypSys peptides (Pearce and Ryan. J. Biol. Chem. 278:30044-30050, 2003; Pearce et al., Nature 411:817-820, 2001), and AtPep1 (supra). The alkalinization activity of azido-Cys-AtPep1 were carried out after incubation the analog with cells in darkness for 10 min, when the pH was recorded.
# Analogs of AtPep1 from the C-terminus of AtPep1 were synthesized and assayed in the alkalinization assay. One mL aliquots of 4 day old Arabidopsis cells were allowed to equilibrate on an orbital shaker at 180 rpm for one hour. A 10 μL aliquot of each peptide solution was added to the cells. Peptide concentrations of 0.25 nM, 2.5 nM, and 25 nM were tested. After 20 min, the pH of the media was recorded.
# The 15-mer from the carboxy-terminus of AtPep1 ([…] (SEQ ID NO: 78)) was substituted with alanine at each position to assess which amino acids were necessary for the alkalinizing activity. […] The set of substituted 15-mer peptides was assayed using four-day-old Arabidopsis cells. […] of each peptide (2.5 pmoles) was added to 1 ml of cells to make a final concentration of 2.5 nM. After 20 min, the pH of the media was recorded. The data is the average of three separate experiments.
# [3] = test system: P. syringae pv. tomato DC3000 (Pst DC3000); experiment: Pst DC3000 inoculation of Arabidopsis leaves with peptide pre-infiltration; format: in vivo, Pseudomonas syringae; conditions: wild type, cfu/cm^2 4 days after infection; AtPep1 10 nM solution
# From the text: The resistance to P. irregulare requires the JA signaling pathway in Arabidopsis (Staswick et al, Plant J. 15: 747-754, 1998), and AtPep peptides induced PDF1.2, a marker gene for the JA response (Huffaker et al., Proc. Natl. Acad. Sci. USA 103: 10098-10103, Huffaker and Ryan, Proc. Natl. Acad. Sci. USA 104: 10732-10736, 2007). […] In order to examine this possibility, Arabidopsis plants were inoculated with P. syringae pv. tomato DC3000 (Pst DC3000) with or without AtPep1 pre-infiltration. Pst DC3000 was extracted from the infected leaves 4 days after infection and colony forming units (cfu/cm^2) were calculated. […] The reduction of Pst DC3000 growth was also not observed when the double mutant, pepr1-1/pepr2-1, was pre-infiltrated with AtPep1. […] Pre-infiltration of AtPep2-6 also attenuated Pst DC3000 growth to different degrees.
# To assess the importance of AtPEPR1 and AtPEPR2 in the resistance to Pst DC3000 after infiltration of AtPep1, T-DNA insertional mutants were inoculated. When 1 μM AtPep1 was infiltrated into leaves one day prior to Pst DC3000 inoculation, the size of the necrotic regions were reduced in both wild type and single mutant lines, pepr1-1 and pepr2-1. […] Similar results were obtained when another set of mutant lines, pepr1-2, pepr2-2 and pepr1-2/pepr2-2, was used.
# AtPEPR1 = target: T2, AtPEPR1 (Arabidopsis thaliana, UniProt Q9SSL9); experiment: Medium alkalinization of transgenic tobacco cells expressing AtPEPR1; format: cell-based; conditions: for change in pH: 2.5 nanomolar
# T2 construct: Tobacco cells were transformed with a CaMV-35S-AtPEPR1 gene; expressed in transfected cells; host or cells: tobacco suspension-cultured cells (Agrobacterium-mediated, CaMV 35S promoter)
# T2 sequence (Q9SSL9 29-1123): T1 sequence (Q9SSL9 29-1123)
# From the text: Tobacco cells were transformed with a CaMV-35S-AtPEPR1 gene to determine whether the foreign receptor protein was targeted to the cell surface, where, in response to AtPep1, it would activate intracellular signaling to effect the alkalinization of the medium of the transgenic tobacco cells. Expression of the AtPEPR1 gene was confirmed by RT-PCR analysis of RNA from three independently transformed tobacco cell lines. […] AtPep2-7 was also supplied to the transgenic tobacco cells expressing AtPEPR1.
# To clarify whether AtPEPR2 binds to AtPep1, the AtPEPR2 coding region was fused to the CaMV 35S promoter and introduced into tobacco suspension-cultured cells by Agrobacterium. Tobacco cells expressing AtPEPR1 and GUS genes were also created as positive and negative controls, respectively. […] These transgenic lines were analyzed for alkalinizing activity as previously described (Pearce et al., Proc. Natl. Acad. Sci. USA 98, 12843-12847, 2001).
# The response to all AtPep peptides in transgenic tobacco cells expressing either AtPEPR1 or AtPEPR2 was analyzed by the medium alkalinization assay.
# OsPEPR1 = experiment: Medium alkalinization of transgenic tobacco cells expressing OsPEPR1; format: cell-based, rice; conditions: for EC50: read-out: half-maximal activity
# Chain of OsPEPR1 (as listed by the source): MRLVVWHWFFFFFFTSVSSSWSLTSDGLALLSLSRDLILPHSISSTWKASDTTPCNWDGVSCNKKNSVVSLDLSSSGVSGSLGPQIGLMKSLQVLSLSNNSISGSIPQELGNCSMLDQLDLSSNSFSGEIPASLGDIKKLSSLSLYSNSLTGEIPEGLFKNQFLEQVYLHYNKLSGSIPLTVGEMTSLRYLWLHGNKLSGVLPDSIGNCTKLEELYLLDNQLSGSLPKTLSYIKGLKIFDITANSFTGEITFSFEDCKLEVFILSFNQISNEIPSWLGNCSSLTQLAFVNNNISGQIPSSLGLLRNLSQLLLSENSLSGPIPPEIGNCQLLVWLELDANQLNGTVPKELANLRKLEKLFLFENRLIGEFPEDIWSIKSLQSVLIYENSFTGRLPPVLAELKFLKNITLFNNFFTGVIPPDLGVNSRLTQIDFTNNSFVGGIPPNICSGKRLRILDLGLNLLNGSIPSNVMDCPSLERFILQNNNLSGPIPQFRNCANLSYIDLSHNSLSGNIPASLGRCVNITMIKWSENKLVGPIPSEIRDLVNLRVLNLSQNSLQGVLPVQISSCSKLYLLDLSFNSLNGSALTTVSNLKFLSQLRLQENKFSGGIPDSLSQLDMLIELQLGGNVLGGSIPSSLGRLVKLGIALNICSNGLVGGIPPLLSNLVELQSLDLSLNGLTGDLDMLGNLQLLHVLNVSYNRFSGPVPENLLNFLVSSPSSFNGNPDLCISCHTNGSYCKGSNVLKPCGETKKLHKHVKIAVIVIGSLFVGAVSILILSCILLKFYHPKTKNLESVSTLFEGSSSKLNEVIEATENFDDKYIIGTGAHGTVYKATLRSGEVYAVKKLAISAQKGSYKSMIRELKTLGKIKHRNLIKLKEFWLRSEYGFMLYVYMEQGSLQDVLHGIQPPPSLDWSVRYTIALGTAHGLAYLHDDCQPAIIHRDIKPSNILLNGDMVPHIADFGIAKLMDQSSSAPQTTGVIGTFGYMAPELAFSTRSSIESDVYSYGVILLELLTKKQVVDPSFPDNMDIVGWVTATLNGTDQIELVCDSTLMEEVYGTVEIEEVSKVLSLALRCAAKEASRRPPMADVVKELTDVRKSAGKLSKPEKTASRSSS
# From the text: We identified rice homologues of AtPEPR1 in the Rice Annotation Project database (see the website located at www.rapdb.dna.affrc.go.jp). The rice homologues, OsPEPR1 (Os08g0446200) and OsPEPR2 (Os08g0446400), have 60% and 62% amino acid similarities, respectively. The OsPEPR1 has 26 LRRs in the extracellular region, which is the same as AtPEPR1. The OsPEPR2 has a shorter extracellular region with 22 LRRs. Transgenic tobacco cells expressing either OsPEPR1 or OsPEPR2 were created to examine the possibility of receptor binding to monocot peptides. OsPep3a, OsPep3b, OsPep3c, ZmPep1 and ZmPep4a were supplied to suspension cultured transgenic tobacco cells, and medium pH was measured. OsPep3a, OsPep3b, ZmPep1 and ZmPep4a caused medium alkalinization in OsPEPR1 expressing cells with a 1.2 pH unit increase and a half-maximal activity of 0.25 nM.
# [4] = Arabidopsis suspension cultured cells, pH of media after 20 min
# [5] = AtPEPR1 expressing tobacco cells
compound,measurement,setting,value
15-mer RGKEKVSSGRPGQHN with Gly at position 9 replaced by Ala; inactive derivative of AtPep1 [Gly to Ala substitution at position 9],competition with the non-substituted 15-mer for receptor binding,[1],neither of these analogs were able to compete
same,activity in the alkalinization assay,[2]; [4],little activity
same,EC50,"[2]; Arabidopsis suspension cultured cells, pH of media after 20 min, read-out: half-maximal activity in the alkalinization assay",> 250 nM
same,Pst DC3000 growth in leaves after pre-infiltration,[3],not observed
15-mer RGKEKVSSGRPGQHN with Ser at position 7 replaced by Ala (-ASGR-) [Ser to Ala substitution at position 7],competition with the non-substituted 15-mer for receptor binding,[1],neither of these analogs were able to compete
same,activity in the alkalinization assay,[2]; [4],little activity
CC(C)[C@H](NC(=O)[C@H](CCCCN)NC(=O)[C@@H](NC(=O)[C@H](C)NC(=O)[C@@H](N)Cc1ccc(O)c(I)c1)[C@@H](C)O)C(=O)N[C@@H](CCCCN)C(=O)N[C@@H](C)C(=O)N[C@@H](CCCCN)C(=O)N[C@@H](CCC(N)=O)C(=O)N[C@@H](CCCNC(=N)N)C(=O)NCC(=O)N[C@@H](CCCCN)C(=O)N[C@@H](CCC(=O)O)C(=O)N[C@@H](CCCCN)C(=O)N[C@H](C(=O)N[C@@H](CO)C(=O)N[C@@H](CO)C(=O)NCC(=O)N[C@@H](CCCNC(=N)N)C(=O)N1CCC[C@H]1C(=O)NCC(=O)N[C@@H](CCC(N)=O)C(=O)N[C@@H](Cc1c[nH]cn1)C(=O)N[C@@H](CC(N)=O)C(=O)O)C(C)C [mono-iodo-Tyr-AtPep1] (H-[Tyr(3-I)]ATKVKAKQRGKEKVSSGRPGQHN-OH),time to equilibration of binding,[1],≤ 4 min
same,peptide concentration saturating the sites,[1]; 10^6 cells/assay,about 0.1 nM
same,Kd,"[1]; Scatchard analysis of the saturation data, Arabidopsis suspension cultured cells",0.25 nM
same,time to maximal binding to Arabidopsis cells,[1]; saturation kinetics,≤ 10 min
same,activity in the alkalinization assay,[2]; [4],as fully active as AtPep1
EIKARGKNKTKPTPSSGKGGKHN (EIKARGKNKTKPTPSSGKGGKHN) [AtPep4],change in pH,AtPEPR1; [5],did not increase medium pH
same,alkalinization of the medium,AtPEPR1; [5],weaker activity
"GLPGKKNVLKKSRESSGKPGGTN [AtPep5, GLPGKKNVLKKSRESSGKPGGTN]",EC50,AtPEPR1,~0.25 nM
"ITAVLRRRPRPPPYSSGRPGQNN [AtPep6, ITAVLRRRPRPPPYSSGRPGQNN]",EC50,AtPEPR1,~0.25 nM
same,maximal change,AtPEPR1; [5],1.2 pH units
RGKEKVSSGRPGQHN [Peptide 15-mer],activity at the lowest concentration tested,[2]; 0.25 nM,substantial activity
same,activity in the alkalinization assay,[2]; [4],nearly as active as the native peptide
"RRPTPPGGAGPREGSGGRGGVIH [OsPep3b, RRPTPPGGAGPREGSGGRGGVIH]",medium pH increase,OsPEPR1,1.2 pH unit
same,EC50,OsPEPR1,0.25 nM
SSGRPGQHN,activity in the alkalinization assay,[2]; [4],inactive
"VRRRPTTPGRPREGSGGNGGNHH [ZmPep1, VRRRPTTPGRPREGSGGNGGNHH]",medium pH increase,OsPEPR1,1.2 pH unit
same,EC50,OsPEPR1,0.25 nM
VSGNVAARKGKQQTSSGKGGGTN (VSGNVAARKGKQQTSSGKGGGTN) [AtPep7],change in pH,AtPEPR1; [5],did not increase medium pH
same,alkalinization of the medium,AtPEPR1; [5],weaker activity
azido-Cys-AtPep1: Cys-AtPep1 coupled through a disulfide bond to the photoaffinity cross-linker APDP (C(APDP″)ATKVKAKQRGKEKVSSGRPGQHN),activity in the alkalinization assay,[2]; [4],as fully active as the native peptide
